Reference: patent publication US7223777B2, “Compounds for the management of aging-related and diabetic vascular complications, process for their preparation, therapeutic and cosmetic uses thereof” (Torrent Pharmaceuticals Ltd., priority 2001, dated 2007)

What was measured:
[1] = target: T1, AGE-BSA (Bos taurus, UniProt P02769); test: In-vitro screening for AGE-breaking activity (AGE-BSA incubated with compound; ELISA / gel permeation chromatography); assay type: biochemical, bovine; settings: 37° C., 24 hours
T1 construct: Bovine serum albumin (fraction V) (BSA); from tissue; host or cells: bovine serum (fraction V); own knowledge: fraction V is the albumin fraction of plasma/serum
Experimental: Fluorescence was used as the criteria to monitor the increased AGE formation.
160 mg/ml of protein, bovine serum albumin, BSA and 1.6M glucose sugar were dissolved in phosphate buffered saline, PBS. Sodium azide was added at 0.02% concentration as a preservative. The solution was filtered asceptically through a […] filter and kept for aging at 37° C. for 16 weeks. After 16 weeks the solution was dialyzed against PBS, aliquoted and stored at −20° C.
To determine the AGE breaking activity, 10 μg/ml of the 16 weeks AGE-BSA was incubated with different concentrations of the test compounds at 37° C. for 24 hours and AGE breaking activity of the test compounds by ELISA was determined.
• 1. Different concentrations of 16 weeks AGE-BSA were coated on a microtiter plate as standard. Each concentration is coated in triplicates. • 2. The test samples were coated on microtiter plate at a concentration of 5 ng. to 20 ng per well in triplicates. • 3. The plate was incubated at 37° C. for one hour. • 4. After incubation the plate was washed with PBST (PBS with 0.05% Tween 20). • 5. Blocking with 5% skimmed milk in PBS at 37° C. for one hour was done. • 6. The plate was washed with PBST. • 7. Primary antibody against AGE-BSA was added and the plate is incubated at 37° C. for one hour. • 8. The plate was washed with PBST. • 9. Secondary antibody anti rabbit HRPO (Horse-Radish Per Oxidase) conjugate was added and the plate is incubated at 37° C. for one hour. • 10. The plate was washed with PBST. • 11. Colour development with OPD (orthophenylenediamine dihydrochloride) and hydrogen peroxide was done. • 12. OD (optical density) at (450 nm reading –620 nm reading) was measured after incubation at 37° C. for 15 minutes with Microplate ELISA Reader.
The breaker activity of the compounds were determined by the following formula:
[formula] OD450-620Control=Absorbance of 20 ng AGE-BSA after incubation at 37° C. for 24 hours without test compound. OD450-620Test=Absorbance of 20 ng AGE-BSA after incubation at 37° C. for 24 hours with required concentration of test compound.
Gel Permeation Chromatography based method was used to determine AGE breaking activities of the compounds.
Separation by Gel Permeation Chromatography (GPC) depends on differences in the size, more precisely the hydrodynamic volume, of the proteins in a sample. […] The pores of a column particle are differentially accessible to smaller particles, depending on their size. This volume of the column is called (V1). The total accessible volume (Vt) is the sum of the volume outside the particles (V0) and the volume accessible inside the particles (V1): Vt=V0+Vi Therefore, in a typical Gel Permeation Chromatography (GPC) run, high molecular weight molecules elute at a lower retention time whereas lower molecular weight molecules are retained for longer time. For the purpose of quantification, the area under the curve for the respective molecule is recorded. The same principle has been applied in the in vitro screening of the molecules of instant invention. Highly cross-linked Advanced Glycosylated Endproducts (AGE) were prepared in vitro by incubating Bovine Serum Albumin (BSA) with glucose for a period of 16 weeks. […] The reduction in the area of AGE-BSA incubated in the presence of AGE breaker as compared to that of control AGE BSA (incubated in absence of AGE breaker) gives an estimate of the AGE breaker activity of the drug. In order to check the non-specific activity of the molecule, a similar experiment was repeated with BSA as well. Methodology:
A known concentration of 16-week AGE-BSA was incubated with and without a predetermined concentration of the drug at 37° C. for 24 hours in clean transparent glass test tubes. The solution without drug served as the control and the solution containing the drug was treated as the test sample.
Gel permeation chromatography was performed on equal volumes of control AGE-BSA preparation and solution of AGE-BSA treated with drug. […]

[2] = Free radical scavenging activity on ABTS radical cation; assay type: biochemical
Experimental: This method measures the relative ability of free radical scavenging substances to scavenge the ABTS.^+ i.e. 2,2-Azino-bis-(3-ethyl benzo thiazoline-6-sulfonate) radical cation as compared to a standard amount of standard or free radical scavengers antioxidants. Incubation of ABTS with Peroxidase (metmyoglobin) and hydrogen peroxide results in the production of radical cation ABTS.^+. This species is blue-green in colour and can be detected at 730 nm. Antioxidants or free radical scavengers in the added sample that causes suppression of the color to a degree that is proportional to their concentration.
Preparation of Buffer Solutions: • a. Phosphate Citrate Buffer (pH 5.0): 48.5 ml of 0.1M citric acid with sufficient 0.2M disodium hydrogen phosphate to produce 100 ml. • b. Phosphate Buffer Saline (PBS): Dissolve 40.0 g of NaCl, 1.0 g of KCl, 1.0 g of KH2PO4 and 3.05 g of Na2HPO4 in 1 liter milli-Q water. Dilute 200 ml of above solution to 1 liter with milli-Q water (pH 7.4–7.6).
Preparation of ABTS Stock Solution (2 mM): • 1 tablet (10 mg) was dissolved in phosphate citrate buffer (pH 5.0) to give a 2 mM solution.
Preparation of Horse Radish Peroxidase Working Solution: • 0.1 mg was dissolved in 10 ml of phosphate buffer saline, 1 ml of this solution was diluted to 100 ml with PBS.
Preparation of Hydrogen Peroxide (1.08 mM) Solution: • 12 μl of Hydrogen Peroxide (30% w/v) was diluted to 100 ml with PBS.
Preparation of Drug Solutions: • 0.1 mM of stock solution of the drug was prepared which was serially diluted in PBS to get 0.05 mM, 0.025 mM and 0.0125 mM solutions.
Preparation of ABTS Radical Stock Solution: • To 2 ml of ABTS stock solution, 1 ml of horseradish Peroxidase working solution was added. • As soon as 2 ml of Hydrogen peroxide solution was added to the above solution, blue-green colour of the ABTS radicals appeared. This solution was incubated at 30° C. for 30 min in order to ensure the completion reaction. Make up the volume to 10 ml with PBS.
Preparation of Control Solution: • 900 μl of ABTS radical stock solution were added to an eppendorf tube. To it were added 100 μl of PBS solution.
Preparation of Test Solution: • 900 μl of ABTS radical stock solutions were added to different eppendorf tubes. To it were added 100 μl of various concentrations of drug solution.
Measurement of Absorbance (O.D): • The absorbance of control and test samples was recorded immediately at 730 nm taking PBS as blank.
Calculation: • The percent antioxidant activity was calculated according to the formula: % Antioxidant activity=100−[O.D of test sample/O.D of control×100]

T1 sequence (P02769 25-607): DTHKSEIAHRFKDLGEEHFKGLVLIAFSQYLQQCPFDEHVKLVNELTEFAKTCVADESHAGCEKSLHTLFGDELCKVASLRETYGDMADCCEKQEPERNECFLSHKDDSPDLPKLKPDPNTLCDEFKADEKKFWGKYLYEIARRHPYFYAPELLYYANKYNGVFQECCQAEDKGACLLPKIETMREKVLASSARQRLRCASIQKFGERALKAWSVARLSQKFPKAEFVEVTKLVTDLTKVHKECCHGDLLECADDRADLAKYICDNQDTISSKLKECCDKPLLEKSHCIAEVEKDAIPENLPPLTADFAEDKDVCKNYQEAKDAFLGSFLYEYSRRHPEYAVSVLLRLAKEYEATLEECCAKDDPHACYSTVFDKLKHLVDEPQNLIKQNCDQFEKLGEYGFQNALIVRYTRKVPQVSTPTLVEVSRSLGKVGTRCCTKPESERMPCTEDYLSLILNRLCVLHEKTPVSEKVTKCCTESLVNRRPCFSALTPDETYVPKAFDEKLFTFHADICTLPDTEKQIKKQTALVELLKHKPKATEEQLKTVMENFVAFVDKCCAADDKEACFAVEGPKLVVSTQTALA

Row | Compound | % Breakage ([1]; 10 mM compound) | Relative Free Radical Scavenging Activity (%) on ABTS ([2]; 12.5 μM) | Relative Free Radical Scavenging Activity (%) on ABTS ([2]; 25.0 μM) | Relative Free Radical Scavenging Activity (%) on ABTS ([2]; 50.0 μM) | Relative Free Radical Scavenging Activity (%) on ABTS ([2]; 100.0 μM) | % Breakage ([1]; 5 mM compound) | % Breakage ([1]; 1.0 mM compound)
1 | O=C(C[n+]1cccc(-c2cc(CCC3CCCCC3)nn2-c2ccccc2)c1)c1cccs1.[Br-] [Compound 37, 1-(2-Thien-2′-yl-2-oxoethyl)-3-[1-phenyl-3-(2-cyclohexylethyl)pyrazol-5-yl]pyridinium bromide] | 85.45% | 21.79% | 37.92% | 41.95% | 39.46% |  | 
2 | O=C(C[n+]1cccc(-c2cc(Cc3ccccc3)n[nH]2)c1)NC12CC3CC(CC(C3)C1)C2.[Cl-] [Compound 25, 1-{2-(1-Adamantylamino-2-oxoethyl)}-3-[(3-phenylmethyl)pyrazol-5-yl]pyridinium chloride] |  |  |  |  |  | 98.59% | 
3 | 1-(2-Cyclopropylamino-2-oxoethyl)-3-[(3-(2-cyclohexylethyl)pyrazol-5-yl]pyridinium chloride [Compound 21] | 93.43% |  |  |  |  |  | 
4 | Cl.c1ccc(OCc2cc(-c3cccnc3)[nH]n2)cc1 [Compound 40, 3-[(3-Phenoxymethyl)pyrazol-5-yl]pyridine hydrochloride] | 66.06% |  |  |  |  |  | 
5 | O=C(C[n+]1cccc(-c2cc(Cc3ccccc3)n[nH]2)c1)c1ccccc1.[Br-] [Compound 14, 1-(2-Phenyl-2-oxoethyl)-3-[(3-phenylmethyl)pyrazol-5-yl]-pyridinium bromide] | 58.14% |  |  |  |  |  | 
6 | 1-(2-Thien-2′-yl-2-oxoethyl)-3-[(1-cyclohexyl-3-phenoxymethyl)pyrazol-5-yl]pyridinium chloride [Compound 38] |  | 27.70% | 44.78% | 61.98% | 66.92% |  | 
7 | Cc1ccc(C(=O)C[n+]2cccc(-c3cc(Cc4ccccc4)n[nH]3)c2)s1.[Cl-] [Compound 12, 1-(2-(5-Methyl-2-Thienyl)-2-oxoethyl)-3-[(3-phenylmethyl)pyrazol-5-yl]pyridinium chloride] | 89.23% | 22.34% | 40.97% | 71.47% | 84.62% |  | 
8 | O=C(C[n+]1cccc(-c2cc(Cc3ccccc3)nn2-c2ccccc2)c1)NC1CC1.[Cl-] [Compound 15, 1-(2-Cyclopropylamino-2-oxoethyl) 3-[(1-phenyl-3-phenylmethyl)pyrazol-5-yl]-pyridinium chloride] | 80.03% |  |  |  |  |  | 
9 | 1-(2-Cyclopropylamino-2-oxoethyl)-3-[(1-cyclohexyl-3-phenylmethyl)pyrazol-5-yl]pyridinium chloride [Compound 23] | 53.29% |  |  |  |  |  | 
10 | O=C(C[n+]1cccc(-c2cc(COc3ccccc3)n[nH]2)c1)NC1CC1.[Cl-] [Compound 31, 1-(2-Cyclopropylamino-2-oxoethyl)-3-[(3-phenoxymethyl)pyrazol-5-yl]pyridinium chloride] | 45.72% |  |  |  |  |  | 
11 | Cc1ccc(C(=O)C[n+]2cccc(-c3cc(CCC4CCCCC4)n[nH]3)c2)s1.[Cl-] [Compound 20] |  | 6.15% | 9.06% | 34.31% | 57.75% |  | 
12 | Cc1cc(C)n(Cc2cc(-c3ccc[n+](CC(=O)c4cc([N+](=O)[O-])cs4)c3)[nH]n2)n1.[Br-] [Compound 8, 1-{2-(4-Nitro-2-thienyl)-2-oxoethyl}-3-[3{(3,5-dimethylpyrazol-1-yl)methyl}-pyrazol-5-yl]-pyridinium bromide] |  | 22.22% | 38.18% | 67.14% | 99.71% | 85.31% | 
13 | Cc1cc(C)n(Cc2cc(-c3ccc[n+](CC(=O)NC4CC4)c3)[nH]n2)n1.[Br-] [Compound 7, 1-[2-(Cyclopropylamino)-2-oxoethyl]3-[3-{(3,5-dimethylpyrazol-1-yl)methyl}-pyrazol-5-yl]-pyridinium bromide] |  |  |  |  |  |  | 51.72%
14 | Cc1cc(C)n(Cc2cc(-c3ccc[n+](CC(=O)c4cc([N+](=O)[O-])cs4)c3)n(C3CCCCC3)n2)n1.[Br-] [Compound 27, 1-(2-(4-nitro-2-thienyl)-2-oxoethyl)-3-[(1-cyclohexyl-3-(3,5-dimethylpyrazol-1-yl)-methyl)pyrazol-5-yl]pyridinium bromide] | 86.98% | 16.16% | 27.12% | 39.05% | 51.04% |  | 
15 | O=C(C[n+]1cccc(-c2cc(COc3ccccc3)n[nH]2)c1)N1CCC(Cc2ccccc2)CC1.[Br-] [Compound 16, 1-(2-(4-Benzyl-1-piperidinyl)-2-oxoethyl) 3-[(3-phenoxymethyl)pyrazol-5-yl]-pyridinium bromide] | 95.51% |  |  |  |  |  | 
